Results: patent publication US20210139610A1, “COMPOSITIONS AND METHODS FOR MEDIATING EPS” (priority 2018, published 2021)
“Also recorded” adds a separate entry of the source.

Columns and labels:
[1] = system: genomic DNA / poly(dGdC); assay: A260/295 absorbance ratio assay of B-DNA to Z-DNA conversion; assay type: biochemical
Method: In one aspect, the agents are administered in the absence of a DNAse. Left: Genomic DNA (2 μg/mL) was incubated with spermidine (spd:300 μM), HU (500 nM), a combination of both spd and HU for 2 h at 37° C. Incubation of gDNA with 3.6M NaCl was used as a positive Z-DNA control. Middle: gDNA (2 μg/mL) was incubated with increased concentrations of Cerium chloride (CeCl3) which is known to induce Z-DNA. Right: poly(dGdC) (1 μg) was incubated with either NaCl (3.6 M), chloroquine (100 μM), or a combination of both NaCl and chloroquine. […] The absorbance values at 260 nm and 295 nm were measured and the A260/295 ratio was calculated. A ratio >8.6 is indicative of B-DNA, while a value near 3.2 is indicative of Z-DNA.

[2] = system: preformed NTHI biofilms; assay: Disruption of pre-formed NTHI biofilms (treatment after initial growth; LIVE/DEAD, CLSM, COMSTAT); assay type: cell-based, Non-typeable Haemophilus influenzae; settings: 24 h biofilm + 16 h with CeCl3 or chloroquine
[3] = system: Z-DNA and B-DNA in the NTHI biofilm extracellular matrix; assay: Immunofluorescence CLSM for Z-DNA / B-DNA in NTHI biofilms; assay type: cell-based, Non-typeable Haemophilus influenzae; settings: 24 h biofilm + 16 h with agent (1 mM CeCl3; 1 μM chloroquine)
Method: FIG. 31: DNase degrades B-DNA, but not Z-DNA, within the biofilm extracellular matrix. DNase (Pulmozyme; 5 units) was added at 24 h after biofilm seeding to in vitro pre-formed NTHI biofilms.
FIG. 37: HMGB1 destabilizes Z-DNA structures in the biofilm extracellular matrix. Non-typeable Haemophilus influenzae biofilms were grown in supplemented BHI media in 8 well chambered coverglass slides at 37° C. and 5% CO2. After 24 h, biofilms were treated as indicated above. After 40 h, biofilms were washed, probed with primary antibodies directed against Z-DNA (light gray dots), a fluorescent secondary antibody, stained with DAPI (gray regions), and visualized via fluorescence microscopy.
FIGS. 50A-50B: Equilibrium shift of B-DNA to Z-DNA conversion alters biofilm formation. NTHI biofilms formed for 24 h were incubated with cerium chloride (CeCl3) or chloroquine for an additional 16 h and were probed with naive or anti-Z-DNA (white) by immunofluorescence CLSM.
FIGS. 51A-51B: Equilibrium shift of B-DNA to Z-DNA conversion alters biofilm formation. NTHI biofilms formed for 24 h were incubated with cerium chloride (CeCl3) (FIG. 51A) or chloroquine (FIG. 51B) for an additional 16 h. Z-DNA was measured by IF and CLSM using anti-Z-DNA and cells were stained with the membrane stain FM4-64. Bars represent the SEM. Statistical significance compared to control was assessed by paired t-tests, *P<0.05, **P<0.01.

[4] = system: preformed NTHI biofilms; assay: Disruption of pre-formed NTHI biofilms (treatment after initial growth; LIVE/DEAD, CLSM, COMSTAT); assay type: cell-based, Non-typeable Haemophilus influenzae; settings: 1% P11
Method: (FIG. 18A) Biofilm growth was initiated then maintained for 24 hrs then treated for 16 hrs with 0 (SBHI Control), 0.1%, 1%, and 5% (w/v) of Phoshocellulose (P11). (FIG. 18B) Biofilm growth was initiated then maintained for 40 hrs in the presence of 0 (sBHI Control), 0.1%, 1%, and 5% (w/v) of (P11). Biofilms were washed with saline and stained with LIVE/DEAD® stain. Images were analyzed by COMSTAT to calculate average thickness and biomass. All images were captured with a 63× objective.
21:65-7. Pulmozyme® was added either at seeding (biofilm prevention) or to pre-formed biofilms (biofilm disruption) (FIG. 6). The resultant biofilms were stained with LIVE/DEAD® and evaluated using CLSM and COMSTAT analysis.
To determine anti-biofilm activity of cation exchange resins on preformed biofilms (i.e. ability to disrupt an extant biofilm), NTHI growth was initiated and maintained for 24 hrs, then treated for 16 hrs with 0 (sBHI Control), 0.1, 1, or 5% (w/v) of P11 phosphocellulose (FIG. 18A). To determine the anti-biofilm activity of cation exchange resins to prevent biofilm formation, NTHI growth was initiated and maintained in the presence of 0 (sBHI Control), 0.1, 1, and 5% w/v of P11 phosphocellulose (FIG. 18B) or 5% (w/v) heparin sepharose (FIG. 19). Biofilms were washed with saline and stained with LIVE/DEAD®, visualized with confocal scanning microscopy (CSLM) and analyzed by COMSTAT to determine average thickness and biomass.

[5] = system: Non-typeable Haemophilus influenzae biofilms; assay: NTHI in vitro biofilm formation, additive present from seeding (LIVE/DEAD, CLSM, COMSTAT); assay type: cell-based; settings: 1 mM exogenous spermidine plus DCHA 50 μM
Method: FIG. 14: Non-typeable Haemophilus influenzae biofilms were grown for 40 h in supplemented BHI medium containing additives as indicated below each bar in 8 well chambered coverglass slides at 37° C. and 5% CO2. Biofilms were washed, stained with LIVE/DEAD®, fixed, and imaged by CLSM. Biofilm parameters were quantified using COMSTAT software.
Dicyclohexylamine inhibits spermidine synthase via a competitive inhibition mechanism, i.e. through binding to the same site on the protein as the putrescine substrate. Applicants therefore hypothesized that dicyclohexylamine would inhibit NTHi biofilm development. […]

[6] = system: NTHI genomic DNA (gDNA); assay: Protection of genomic DNA from DNase digestion (agarose gel); assay type: biochemical, Non-typeable Haemophilus influenzae; settings: DNase 0.5 units
Method: (FIG. 7C) Increasing levels of spermidine (Spd) and HU, separately or together, were incubated with genomic DNA (2 μg/ml) for 1.5 h at 37° C., followed by treatment with Pulmozyme® for 20 min. DNA degradation was assayed using agarose gel electrophoresis. […] (FIG. 7D) Spd (300 μM) and HU (1 μM) were incubated with genomic DNA (2 μg/ml) for 40 h, followed by Pulmozyme® treatment for 20 min.
To test synergism in vitro, Applicants incubated NTHI genomic DNA (gDNA) with spermidine (10, 20, 50, or 100 μM) in the presence or absence of HU (50 or 100 nM) and DNase (0.5 units). Degradation was assessed by agarose gel electrophoresis and UV illumination.

[7] = system: NTHI biofilms; assay: Transwell assay: NTHI biofilm in basolateral chamber, P11 resin in apical chamber; assay type: cell-based, Non-typeable Haemophilus influenzae
Method: (FIG. 42A) NTHI biofilm growth was initiated at 37° C., 5% CO2 in the basolateral chamber of a transwell plate system whereas P11 resin was added to the apical chamber, and incubated for 16 h. (FIG. 42B) Biofilms were stained, fixed, visualized via CLSM, and analyzed by COMSTAT. […] (FIG. 42C) Spermidine (Spd, 300 μM) and HU (500 nM) were added at seeding.
To determine the effect of P11 sequestration of these molecules on bacterial biofilm formation, Applicants utilized a transwell system. NTHI growth was initiated in the basolateral chamber while P11 (1% w/v) was added to the apical chamber at seeding. At 16 h, the biofilms were washed and stained with LIVE/DEAD®, imaged using CLSM, and analyzed with COMSTAT. […] To determine whether P11 cation depletion included polyamines and/or DNABII proteins, NTHI growth was initiated in the basolateral chamber with the exogenous addition of 1 mM spermidine and 1 μM HU, while P11 was added at 1% w/v to the apical chamber.
To determine whether the decrease in biofilm formation was dependent on direct cellular contact, NTHI growth was initiated in the basal chamber of a transwell plate system that contained a 0.4 μm pore size within the membrane that separates the apical and basolateral chambers. This allows for the diffusion of small molecules e.g. proteins (DNABII), polyamines and divalent metal cations between the two chambers, but not bacterial cells. […] Biofilms were washed with saline and stained with LIVE/DEAD®, visualized with CSLM and analyzed by COMSTAT to determine average thickness and biomass.
To determine whether polyamines (spermidine) are depleted by P11 phosphocellulose without direct contact in the transwell system, NTHi growth was initiated in the basolateral chamber containing 0, 100, 500, or 1000 μM Spermidine, while 0 (sBHI control) or 1.5% (w/v) P11 phosphocellulose was added to the apical chamber and maintained for 16 hrs. Biofilms were washed with saline and stained with LIVE/DEAD®, visualized with CSLM and analyzed by COMSTAT to determine average thickness and biomass. […]

[8] = system: NTHI biofilms in the middle ear; assay: Chinchilla model of otitis media due to NTHI, middle ear biofilm scoring; assay type: in vivo; settings: 5 μg to middle ears at 4 and 5 days post infection, scored 24 h later
Method: FIGS. 39A-39B: HMGB1 promotes biofilm resolution in an experimental model (chinchilla host) of OM. Diluent or 5 μg rHMGB1 or mHMGB1 were delivered directly to middle ears of chinchillas at 4 and 5 days post infection with NTHI. Animals were sacrificed 24 h later, and their middle ears were imaged (FIG. 39A) and blindly scored (FIG. 39B) based on the criteria described in the bottom of (FIG. 39A). Bars represent SEM. ***P<0.001.

[9] = system: genomic DNA; assay: Spermidine sensitivity of nucleases on genomic DNA; assay type: biochemical; settings: Spermidine titrated from 10 μM-10 mM

With `[Cl][Ce]([Cl])[Cl]` [CeCl3, cerium chloride] the “induction of Z-DNA in genomic DNA” value ([1]; gDNA 2 μg/mL, spd 300 μM + HU 500 nM, 2 h at 37° C., or increased concentrations of CeCl3) was “synergized to induce Z-DNA”, the “NTHI biofilm formation / development” value [2] was “increased Z-DNA and biofilm formation” and the “Z-DNA abundance in NTHI biofilm” value [3] was “increased Z-DNA abundance”.

`[Cl-].[Cl-].[Mg+2]` [MgCl2] was tested, and the “compensation of phosphocellulose effect on NTHI biofilm” value (“compensation” for short) ([4]; MgCl2 0-10 mM for 16 hrs) was “can partially compensate for the disruptive effect of phosphocellulose; also recorded: rescues the negative effect of phosphocellulose on NTHI biofilm stability”.

`CCN(CC)CCCC(C)Nc1ccnc2cc(Cl)ccc12` (centres unmarked) [chloroquine] was tested, and the “B-DNA to Z-DNA transition of poly(dGdC)” value ([1]; chloroquine 100 μM with NaCl 3.6 M) was “prevents the transition of B-DNA to Z-DNA”, the “NTHI biofilm formation / development” value [2] was “reduced Z-DNA and biofilm development” and the “Z-DNA abundance in NTHI biofilm” value [3] was “decreased Z-DNA abundance; also recorded: reduced Z-DNA”.

`NCCCCNCCCN` [spermidine] was tested, and the “rescue of biofilm formation in dicyclohexylamine-treated NTHI biofilms” value [5] was “defects in biofilm biogenesis could be compensated for; also recorded: restored normal biofilm thickness, biomass, and roughness; also recorded: able to rescue biofilm growth”, the “rescue of biofilm formation in dicyclohexylamine-treated NTHI biofilms” value ([5]; listed as Spd) was “restored biofilm formation” and the “concentration protecting gDNA from DNase individually” value [6] was > 100 µM. For the same molecule, the “concentration inhibiting gDNA digestion synergistically when admixed” value ([6]; admixed with HU) was < 50 µM, the “compensation” value ([4]; spermidine 0-5 mM for 16 hrs) was “can partially compensate for the negative effect of phosphocellulose” and the “compensation” value ([4]; spermidine 0-5 mM for 16 hrs, listed as Spermidine) was “rescues the negative effect of phosphocellulose on NTHI biofilm stability”. The “restoration of P11-depleted biofilm by HU or spermidine individually” value ([7]; 1% P11, 1 mM spermidine or 1 μM HU, data not shown) was “insufficient” and the “restoration of cation-depleted biofilms by spermidine alone” value ([7]; 1.5% P11, 100, 500 or 1000 μM spermidine, 16 hrs) was “alone can restore cation-depleted biofilms in a dose-dependent manner; also recorded: reduces the cation depletion effects of P11 phosphocellulose”.

B1: non-inflammatory HMGB1 variant: mHMGB1, a C45 S non-inflammatory variant (protein, UniProt P09429 1-215, looked up, variant C45S)
High mobility group protein B1: MGKGDPKKPRGKMSSYAFFVQTCREEHKKKHPDASVNFSEFSKKSSERWKTMSAKEKGKFEDMAKADKARYEREMKTYIPPKGETKKKFKDPNAPKRPPSAFFLFCSEYRPKIKGEHPGLSIGDVAKKLGEMWNNTAADDKQPYEKKAAKLKEKYEKDIAAYRAKGKPDAAKKGVVKAEKSKKKKEEEEDEEDEEDEEEEEDEEDEDEEEDDDDE
B1 was tested, and the “resolution of middle ear NTHI biofilms” value [8] was “efficient resolution of adherent biofilms”.

B2: NucB: nuclease that prevents biofilm formation (Table 1) (protein, UniProt P42983 29-136, looked up)
Sporulation-specific …: SYDKVLYFPLSRYPETGSHIRDAIAEGHPDICTIDRDGADKRREESLKGIPTKPGYDRDEWPMAVCEEGGAGADVRYVTPSDNRGAGSWVGNQMSSYPDGTRVLFIVQ
With B2 the “Spd inhibition: spermidine concentration where nuclease was reduced to <10% activity on genomic DNA” value [9] was >10 mM.
